In patent US20250296958A1, “GL[…] E[…]” (THE ADMINISTRATORS OF THE TULANE EDUCATIONAL FUND, priority 2022, published 2025):
“Also recorded” adds a separate entry of the source. Where a SMILES comes first, the peptide text is derived from it. Bridges are numbered along the chain shown (N, C = ends). [ ]: non-standard residue; d: D form. The star is where a group is joined. ξ: configuration not given here. X1 = OC[C@H]1O[C@@H](O[C@H]2[C@H](O)[C@@H](O)[C@H](*)O[C@@H]2CO)[C@H](O)[C@@H](O)[C@H]1O; βGlc = OC[C@H]1O[C@@H](*)[C@H](O)[C@@H](O)[C@@H]1O; d1Nal = N[C@H](Cc1cccc2ccccc12)C(=O)O; ξ1Nal = NC(Cc1cccc2ccccc12)C(=O)O

Key:
male and female DBA mice = assay: Hot plate (HP) antinociception test; conditions: for rank order of potency (ED50), HP: both mg/kg and μmol/kg values; for HP antinociception, in words: s.c., 5 hr test
[1] = tested on: male and female CD-1 mice; assay: Tail flick (TF) antinociception test; type: in vivo; conditions: for rank order of effectiveness, TF AUC: main effects of drug; for rank order of potency (ED50), TF: mg/kg calculations; for TF antinociception AUC: top dose (5.6 mg/kg), mean male and female
Description: Tail Flick (TF): CD1 mice were used for this test. The latency to withdraw the tail from a heat source was automatically measured (IITC, Woodland Hills, CA). […] Percent Maximum Possible Effect (% MPE) was determined as [(latency-baseline latency)/(9-baseline latency)]*100.
Statistics/Data Analysis: Data were analyzed with […] PRISM software (GraphPad Software, San Diego CA).

mu opioid receptor (MOR) = biological target: T1, mu opioid receptor (MOR) (Homo sapiens, UniProt P35372); assay: Receptor binding, mu opioid receptor (NIMH PDSP); conditions: for reduction of MOR affinity by glycosylation: relative to unglycosylated reference; for MOR affinity, in words: comparison among analogs
T1 construct: NIMH Psychoactive Drug Screening Program (PDSP), University of North Carolina at Chapel Hill (performed the assay)
From the text: (§1) Receptor Binding Profiles and Ki: The receptor binding an Ki determinations were generously provided by the National Institute of Mental Health's Psychoactive Drug Screening Program (PDSP), Directed by Bryan L. Roth at the University of North Carolina at Chapel Hill and Project Officer Jamie Driscoll at NIMH, Bethesda MD, USA.

[2] = biological target: T2, delta opioid receptor (DOR) (Homo sapiens, UniProt P41143); assay: Receptor binding, delta opioid receptor (NIMH PDSP)
T2 construct: NIMH Psychoactive Drug Screening Program (PDSP), University of North Carolina at Chapel Hill (performed the assay)
From the text: as §1

[3] = biological target: T3, kappa opioid receptor (KOR) (Homo sapiens, UniProt P41145); assay: Receptor binding, kappa opioid receptor (NIMH PDSP); conditions: for kap/mu: ratio of KOR-to-MOR binding (Ki)
T3 construct: NIMH Psychoactive Drug Screening Program (PDSP), University of North Carolina at Chapel Hill (performed the assay)
From the text: as §1

[4] = tested on: delta opioid receptor (DOR); assay: Receptor binding, delta opioid receptor (NIMH PDSP); conditions: ratio of DOR-to-MOR binding (Ki)
From the text: as §1

[5] = i.v.; cited from earlier work
male CD-1 mice = assay: Conditioned place preference (CPP)
Description: Conditioned Place Preference (CPP): Male CD-1 mice were tested for CPP in a modified 2-chamber apparatus (Noldus, Leesburg, VA). The 20×20 cm chambers had distinct visual and tactile cues: 1) vertical striped walls with circular holes in a metal floor or 2) gray walls with clover-shaped holes. […] Eight arenas were counterbalanced for the cue pattern in the left and right chamber. Tests were conducted in 4 phases: habituation (days 1-2, 30′), baseline (day 4-5, 20′), conditioning (days 6-8, 40′), and testing (day 9, 20′). Two sessions per day were conducted at each phase (9:30 and 10:30 am) and animals were placed in the left chamber in session 1 and the right in session 2. For baseline and testing, both chambers were freely accessible. […] These protocols balanced exposure to the chambers, and for conditioning, minimized drug carry-over effects. CPP was determined as the change in time spent on the drug-associated side minus the time spent on that same side during baseline tests.
After two habituation and two baseline sessions, three conditioning days were conducted. […] The following day, a test session was conducted and CPP was determined as the change in time spent on the drug-associated side minus the time spent on that same side during baseline tests.

T1 sequence (P35372 whole entry): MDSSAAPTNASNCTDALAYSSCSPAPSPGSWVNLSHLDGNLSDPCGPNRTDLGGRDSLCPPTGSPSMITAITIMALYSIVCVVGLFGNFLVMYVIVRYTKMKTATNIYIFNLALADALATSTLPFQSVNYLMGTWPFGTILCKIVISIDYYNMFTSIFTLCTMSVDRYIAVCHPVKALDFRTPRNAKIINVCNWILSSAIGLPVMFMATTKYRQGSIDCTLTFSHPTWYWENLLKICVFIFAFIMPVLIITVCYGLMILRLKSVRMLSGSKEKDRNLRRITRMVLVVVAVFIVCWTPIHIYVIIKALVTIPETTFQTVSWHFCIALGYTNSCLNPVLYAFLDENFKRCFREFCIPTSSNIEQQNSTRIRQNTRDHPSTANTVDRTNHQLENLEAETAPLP
T3 sequence (P41145 whole entry): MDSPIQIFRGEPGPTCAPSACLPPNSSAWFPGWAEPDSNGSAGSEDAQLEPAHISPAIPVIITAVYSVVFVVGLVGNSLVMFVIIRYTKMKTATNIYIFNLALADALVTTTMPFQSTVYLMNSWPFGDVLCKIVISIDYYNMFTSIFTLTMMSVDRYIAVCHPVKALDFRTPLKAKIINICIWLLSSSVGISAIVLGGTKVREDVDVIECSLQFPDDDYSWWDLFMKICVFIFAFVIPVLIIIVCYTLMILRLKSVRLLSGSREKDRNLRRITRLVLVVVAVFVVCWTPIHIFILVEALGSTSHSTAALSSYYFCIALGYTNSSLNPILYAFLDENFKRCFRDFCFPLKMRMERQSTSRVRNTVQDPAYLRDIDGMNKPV
T2 sequence (P41143 whole entry): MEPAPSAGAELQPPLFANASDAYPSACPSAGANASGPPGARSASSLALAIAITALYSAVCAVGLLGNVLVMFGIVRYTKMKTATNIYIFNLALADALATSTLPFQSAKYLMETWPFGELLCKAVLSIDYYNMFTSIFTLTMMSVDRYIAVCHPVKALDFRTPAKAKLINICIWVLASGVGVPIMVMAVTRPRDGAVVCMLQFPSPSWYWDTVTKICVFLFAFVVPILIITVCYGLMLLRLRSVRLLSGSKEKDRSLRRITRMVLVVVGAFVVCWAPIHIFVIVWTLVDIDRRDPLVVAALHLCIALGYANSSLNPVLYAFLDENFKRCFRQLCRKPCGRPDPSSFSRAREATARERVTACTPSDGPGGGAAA

SMILES | rank order of potency (ED50), HP (male and female DBA mice) | HP antinociception, in words (male and female DBA mice) | rank order of effectiveness, TF AUC [1] | rank order of potency (ED50), TF [1] | reduction of MOR affinity by glycosylation (mu opioid receptor (MOR)) | Ki [2] | MOR affinity, in words (mu opioid receptor (MOR)) | KOR binding, in words [3] | del/mu [4] | DOR binding, in words [2] | kap/mu [3] | further results
NC(=O)[C@H](CO[C@@H]1O[C@H](CO)[C@@H](O)[C@H](O)[C@H]1O)NC(=O)[C@@H]1CCC(=O)NCCCC[C@@H](NC(=O)[C@@H](N)Cc2ccc(O)cc2)C(=O)N[C@@H](Cc2c[nH]c3ccccc23)C(=O)N[C@@H](Cc2ccccc2)C(=O)N1 [Analog A1, Tyr-c[D-Lys-Trp-Phe-Glu]-Ser(β-Glc)-NH2] | A2>A7>A1>ZH853>morphine | not significantly greater than those of reference compounds | A2>A7>A1>morphine>ZH853 | A2>A7>A1>morphine >ZH853 | approximately 5 fold | – | – | – | – | – | – | –
NC(=O)[C@H](CO[C@@H]1O[C@H](CO)[C@@H](O[C@@H]2O[C@H](CO)[C@H](O)[C@H](O)[C@H]2O)[C@H](O)[C@H]1O)NC(=O)[C@@H]1CCC(=O)NCCCC[C@@H](NC(=O)[C@@H](N)Cc2ccc(O)cc2)C(=O)N[C@@H](Cc2c[nH]c3ccccc23)C(=O)N[C@@H](Cc2ccccc2)C(=O)N1 [Analog A2, Tyr-c[D-Lys-Trp-Phe-Glu]-Ser(β-Lact)-NH2] | A2>A7>A1>ZH853>morphine | robust antinociception; also recorded: significantly greater AUC | A2>A7>A1>morphine>ZH853 | A2>A7>A1>morphine >ZH853 | approximately 5 fold | – | – | – | – | – | – | TF antinociception (full) ([1]; 1.8 mg/kg): 100 % MPE; dose lower than morphine for equal total TF antinociception, mg/kg basis ([1]; 1.8 mg/kg A2 matched to 10 mg/kg morphine): 5.55 fold; TF antinociception, in words ([1]; s.c., time course and AUC): remained high at the 5-hour limit of the test; TF antinociception AUC [1]: > 25000
NC(=O)[C@H](CO[C@@H]1O[C@H](CO)[C@@H](O)[C@H](O)[C@H]1O)NC(=O)CNC(=O)[C@@H]1CCC(=O)NCCCC[C@@H](NC(=O)[C@@H](N)Cc2ccc(O)cc2)C(=O)N[C@@H](Cc2c[nH]c3ccccc23)C(=O)N[C@@H](Cc2ccccc2)C(=O)N1 [Analog A3] | – | – | – | – | – | ≥ 10 µM | lowest MOR affinity | increased KOR affinity | – | – | – | –
NC(=O)[C@H](CO[C@@H]1O[C@H](CO)[C@@H](O)[C@H](O)[C@H]1O)NC(=O)[C@@H]1CCC(=O)NCCCC[C@@H](NC(=O)[C@@H](N)Cc2ccc(O)cc2)C(=O)N[C@H](Cc2cccc3ccccc23)C(=O)N[C@@H](Cc2ccccc2)C(=O)N1 [Analog A4] (H-Y[dK][d1Nal]FES(βGlc)-NH2; lactam 2-5) | – | – | – | – | – | ≥ 10 µM | – | eliminated delta and kappa binding | 157 | eliminated delta and kappa binding | 157 | Ki (mu opioid receptor (MOR)): 0.0635 µM; additional reduction of MOR binding by D-Nal substitution of Trp at position 3 (mu opioid receptor (MOR)): 11 fold; Ki [3]: ≥ 10 µM
NC(=O)[C@H](CO[C@@H]1O[C@H](CO)[C@@H](O[C@@H]2O[C@H](CO)[C@H](O)[C@H](O)[C@H]2O)[C@H](O)[C@H]1O)NC(=O)[C@@H]1CCC(=O)NCCCC[C@@H](NC(=O)[C@@H](N)Cc2ccc(O)cc2)C(=O)N[C@H](Cc2cccc3ccccc23)C(=O)N[C@@H](Cc2ccccc2)C(=O)N1 [Analog A5] (H-Y[dK][d1Nal]FES(X1)-NH2; lactam 2-5) | – | – | – | – | – | ≥ 10 µM | – | eliminated delta and kappa binding | 181 | eliminated delta and kappa binding | 181 | Ki (mu opioid receptor (MOR)): 0.0553 µM; additional reduction of MOR binding by D-Nal substitution of Trp at position 3 (mu opioid receptor (MOR)): 11 fold; Ki [3]: ≥ 10 µM
NC(=O)[C@H](CO[C@@H]1O[C@H](CO)[C@@H](O)[C@H](O)[C@H]1O)NC(=O)[C@@H]1CCC(=O)NCCCC[C@@H](NC(=O)[C@@H](N)Cc2ccc(O)cc2)C(=O)NC(Cc2cccc3ccccc23)C(=O)N[C@@H](Cc2ccccc2)C(=O)N1 (some centres unmarked) [Analog A6] (H-Y[dK][ξ1Nal]FES(βGlc)-NH2; lactam 2-5) | – | – | – | – | approximately 5 fold | – | did not reduce MOR affinity | increased KOR affinity | 57 | – | 48 | MOR selectivity, in words (mu opioid receptor (MOR); versus DOR and KOR): least selective compound
NC(=O)[C@H](CO[C@@H]1O[C@H](CO)[C@@H](O)[C@H](O)[C@H]1O)NC(=O)[C@H](CO[C@@H]1O[C@H](CO)[C@@H](O)[C@H](O)[C@H]1O)NC(=O)[C@@H]1CCC(=O)NCCCC[C@@H](NC(=O)[C@@H](N)Cc2ccc(O)cc2)C(=O)N[C@@H](Cc2c[nH]c3ccccc23)C(=O)N[C@@H](Cc2ccccc2)C(=O)N1 [Analog A7, Tyr-c[D-Lys-Trp-Phe-Glu]-Ser(β-Glc)-Ser(β-Glc)-NH2] | A2>A7>A1>ZH853>morphine | robust antinociception; also recorded: significantly greater AUC | A2>A7>A1>morphine>ZH853 | A2>A7>A1>morphine >ZH853 | approximately 5 fold | – | did not change MOR affinity | below detectable levels | – | below detectable levels | – | greater HP effectiveness versus control compounds (AUC) (male and female DBA mice; 1.8 mg/kg vs 5.6 mg/kg for controls): approximately 3 fold
NC(=O)CNC(=O)[C@@H]1CCC(=O)NCCCC[C@@H](NC(=O)[C@@H](N)Cc2ccc(O)cc2)C(=O)N[C@@H](Cc2c[nH]c3ccccc23)C(=O)N[C@@H](Cc2ccccc2)C(=O)N1 [ZH853, reference compound] | A2>A7>A1>ZH853>morphine | – | A2>A7>A1>morphine>ZH853 | A2>A7>A1>morphine >ZH853 | – | 0.271 µM | subnanomolar Ki, showed the highest MOR affinity | – | – | – | – | time of peak response, TF ([1]; s.c.): 30 to 40 min; TF antinociception AUC [1]: 10000; morphine equivalence [5]: about 1
CN1CC[C@]23c4c5ccc(O)c4O[C@H]2[C@@H](O)C=C[C@H]3[C@H]1C5 [morphine, reference compound] | A2>A7>A1>ZH853>morphine | – | – | A2>A7>A1>morphine >ZH853 | – | – | – | – | – | – | – | TF antinociception (full) ([1]; 10 mg/kg, n=6): 100 % MPE; time of peak response, TF ([1]; s.c.): 20 to 30 min; CPP versus vehicle (male CD-1 mice; 3.2 mg/kg, one-way analysis, p<0.01): greater than vehicle; conditioned place preference (CPP) (male CD-1 mice; 3 equiantinociceptive doses, s.c., n=12): produced CPP
